From the NIST ThermoML archive (doi:10.1021/je2010209)

Test: xn = mol fraction of the nth substance listed
Conditions: 101 kPa, Liquid; for speed of sound: Sing-around technique in a fixed-path interferometer; for mass density: Vibrating tube method

COCCOCCO [2-(2-methoxyethoxy)ethanol] + CCCCn1cc[n+](C)c1.F[B-](F)(F)F
Conditions | mass density [kg/m3] | speed of sound [m/s]
288.15 K, x2 = 0 | 1024.6 | 1451
288.15 K, x2 = 0.0308 | 1035.12 | 1461
288.15 K, x2 = 0.1053 | 1059.04 | 1490
288.15 K, x2 = 0.2065 | 1086.98 | 1514
288.15 K, x2 = 0.3137 | 1110.84 | 1533
288.15 K, x2 = 0.4002 | 1126.77 | 1544
288.15 K, x2 = 0.5035 | 1143.12 | 1559
288.15 K, x2 = 0.6083 | 1158.14 | 1568
288.15 K, x2 = 0.7023 | 1170.82 | 1575
288.15 K, x2 = 0.8291 | 1187.12 | 1580
288.15 K, x2 = 0.9381 | 1199.91 | 1583
293.15 K, x2 = 0 | 1020.2 | 1434
293.15 K, x2 = 0.0308 | 1030.69 | 1445
293.15 K, x2 = 0.1053 | 1054.73 | 1473
293.15 K, x2 = 0.2065 | 1082.85 | 1499
293.15 K, x2 = 0.3137 | 1106.71 | 1517
293.15 K, x2 = 0.4002 | 1122.56 | 1531
293.15 K, x2 = 0.5035 | 1138.99 | 1546
293.15 K, x2 = 0.6083 | 1154.16 | 1555
293.15 K, x2 = 0.7023 | 1167.07 | 1563
293.15 K, x2 = 0.8291 | 1183.25 | 1572
293.15 K, x2 = 0.9381 | 1196.01 | 1574
298.15 K, x2 = 0 | 1015.79 | 1416
298.15 K, x2 = 0.0308 | 1026.51 | 1428
298.15 K, x2 = 0.1053 | 1050.61 | 1457
298.15 K, x2 = 0.2065 | 1078.49 | 1483
298.15 K, x2 = 0.3137 | 1102.51 | 1503
298.15 K, x2 = 0.4002 | 1118.58 | 1518
298.15 K, x2 = 0.5035 | 1135.22 | 1533
298.15 K, x2 = 0.6083 | 1150.52 | 1543
298.15 K, x2 = 0.7023 | 1163.46 | 1551
298.15 K, x2 = 0.8291 | 1180 | 1560
298.15 K, x2 = 0.9381 | 1192.92 | 1563
303.15 K, x2 = 0 | 1011.36 | 1399
303.15 K, x2 = 0.0308 | 1022.02 | 1411
303.15 K, x2 = 0.1053 | 1046.36 | 1441
303.15 K, x2 = 0.2065 | 1074.58 | 1468
303.15 K, x2 = 0.3137 | 1098.6 | 1489
303.15 K, x2 = 0.4002 | 1114.55 | 1504
303.15 K, x2 = 0.5035 | 1131.18 | 1519
303.15 K, x2 = 0.6083 | 1146.73 | 1530
303.15 K, x2 = 0.7023 | 1160.08 | 1539
303.15 K, x2 = 0.8291 | 1176.92 | 1546
303.15 K, x2 = 0.9381 | 1189.62 | 1552
308.15 K, x2 = 0 | 1006.92 | 1382
308.15 K, x2 = 0.0308 | 1017.5 | 1395
308.15 K, x2 = 0.1053 | 1042 | 1425
308.15 K, x2 = 0.2065 | 1070.56 | 1453
308.15 K, x2 = 0.3137 | 1094.68 | 1474
308.15 K, x2 = 0.4002 | 1110.65 | 1490
308.15 K, x2 = 0.5035 | 1127.3 | 1506
308.15 K, x2 = 0.6083 | 1142.95 | 1517
308.15 K, x2 = 0.7023 | 1156.36 | 1526
308.15 K, x2 = 0.8291 | 1173.24 | 1534
308.15 K, x2 = 0.9381 | 1185.91 | 1540
313.15 K, x2 = 0 | 1002.47 | 1366
313.15 K, x2 = 0.0308 | 1013.14 | 1378
313.15 K, x2 = 0.1053 | 1037.68 | 1409
313.15 K, x2 = 0.2065 | 1066.49 | 1437
313.15 K, x2 = 0.3137 | 1090.91 | 1460
313.15 K, x2 = 0.4002 | 1107.01 | 1477
313.15 K, x2 = 0.5035 | 1123.64 | 1493
313.15 K, x2 = 0.6083 | 1139.19 | 1505
313.15 K, x2 = 0.7023 | 1152.49 | 1514
313.15 K, x2 = 0.8291 | 1169.38 | 1523
313.15 K, x2 = 0.9381 | 1182.2 | 1529
318.15 K, x2 = 0 | 998.009 | 1349
318.15 K, x2 = 0.0308 | 1008.9 | 1362
318.15 K, x2 = 0.1053 | 1033.44 | 1393
318.15 K, x2 = 0.2065 | 1062 | 1422
318.15 K, x2 = 0.3137 | 1086.38 | 1447
318.15 K, x2 = 0.4002 | 1102.75 | 1464
318.15 K, x2 = 0.5035 | 1119.79 | 1480
318.15 K, x2 = 0.6083 | 1135.51 | 1494
318.15 K, x2 = 0.7023 | 1148.84 | 1503
318.15 K, x2 = 0.8291 | 1165.68 | 1512
318.15 K, x2 = 0.9381 | 1178.57 | 1519
